Reference: patent US20240368121A1, “ESTROGEN RECEPTOR DEGRADERS, PHARMACEUTICAL COMPOSITIONS THEREOF, AND THEIR THERAPEUTIC APPLICATIONS” (BioTheryX, Inc., priority 2021, published 2024)

Columns and labels:
Assay type in all cases: cell-based
[1] = test system: MCF7 cells; experiment: Cell viability assay ([…]-GLO, 6-day treatment); conditions: Homo sapiens, MCF7, 144 h; MCF-7 cells, 6 days, CTG; read-out: Inhibition of Cancerous Cells IC50 MCF-7
Method in brief: (§1)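 MCF7 (MEM) and T47D (RPMI with insulin), both with 10% FBS, at 1,000 cells/well, treated with a 10-point compound dose series for 6 days, with medium and compound refreshed once. Viability read by CellTiter-Glo luminescence.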

[2] = test system: T47D cells; experiment: Cell viability assay ([…]-GLO, 6-day treatment); conditions: Homo sapiens, 144 h, 6 days, CTG, read-out: Inhibition of Cancerous Cells IC50 T47D
Method in brief: as §1

[3] = biological target: T1, ERα (Homo sapiens, UniProt P03372); experiment: Protein degradation assay: ERα in MCF-7 cells via western blot; conditions: 6 h; for ERα Protein Degradation 1 nM: 1 nM compound; for ERα Protein Degradation 10 nM: 10 nM compound; for ERα Protein Degradation 100 nM: 100 nM compound
T1 construct: degrading an ERα in MCF-7 cells via a western blot; endogenous in cells; host or cells: MCF-7
T1 sequence (P03372 1-595): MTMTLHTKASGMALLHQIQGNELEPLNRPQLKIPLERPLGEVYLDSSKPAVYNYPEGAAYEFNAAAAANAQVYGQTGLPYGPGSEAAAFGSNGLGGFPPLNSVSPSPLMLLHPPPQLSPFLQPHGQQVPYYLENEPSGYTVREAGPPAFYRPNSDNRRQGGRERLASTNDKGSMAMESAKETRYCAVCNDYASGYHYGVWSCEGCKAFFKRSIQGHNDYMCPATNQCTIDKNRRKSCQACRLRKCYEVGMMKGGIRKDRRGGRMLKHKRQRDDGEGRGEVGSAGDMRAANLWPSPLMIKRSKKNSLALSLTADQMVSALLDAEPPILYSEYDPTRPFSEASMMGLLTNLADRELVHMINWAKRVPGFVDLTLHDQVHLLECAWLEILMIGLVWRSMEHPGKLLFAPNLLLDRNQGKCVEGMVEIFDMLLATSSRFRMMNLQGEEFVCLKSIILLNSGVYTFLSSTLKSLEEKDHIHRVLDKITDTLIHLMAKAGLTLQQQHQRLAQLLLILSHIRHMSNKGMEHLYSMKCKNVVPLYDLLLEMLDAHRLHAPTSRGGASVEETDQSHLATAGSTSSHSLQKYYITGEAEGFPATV
Method in brief: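 MCF-7 cells in MEM/10% FBS with insulin, seeded 300,000/well, treated 6 h at set concentrations (e.g., 1 nM–1 μM). Whole-cell lysates immunoblotted for ERα with GAPDH loading control, chemiluminescent detection; percentage degradation reported in binned categories (≥50%, 25–50%, 10–25%, <10%).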

SMILES	IC50 [1] [nM]	IC50 [2] [nM]	ERα Protein Degradation 1 nM [3]	ERα Protein Degradation 10 nM [3]	ERα Protein Degradation 100 nM [3]
Cc1c(-c2ccc(O)cc2)n(Cc2ccc(OCCCCN3CCN(C(=O)COc4ccc5c(c4)CN(C4CCC(=O)NC4=O)C5=O)CC3)cc2)c2ccc(O)cc12 (stereo not drawn) [Compound E3, 3-(5-(2-(4-(4-(4-((5-Hydroxy-2-(4-hydroxyphenyl)-3-methyl-1H-indol-1-yl)-methyl)phenoxy)butyl)piperazin-1-yl)-2-oxoethoxy)-1-oxoisoindolin-2-yl)piperidine-2,6-dione]	4.5	3.2	B (a percentage degradation value of less than 50% and no less than 25%)	B (a percentage degradation value of less than 50% and no less than 25%)	B (a percentage degradation value of less than 50% and no less than 25%)
Cc1c(-c2ccc(O)cc2)n(Cc2ccc(N3CCC(CN4CCN(c5ccc6c(c5)CN(C5CCC(=O)NC5=O)C6=O)CC4)CC3)cc2)c2ccc(O)cc12 (stereo not drawn) [Compound E4, 3-(5-(4-((1-(4-((5-hydroxy-2-(4-hydroxyphenyl)-3-methyl-1H-indol-1-yl)-methyl)phenyl)piperidin-4-yl)methyl)piperazin-1-yl)-1-oxoisoindolin-2-yl)piperidine-2,6-dione]	0.38	0.17	B (a percentage degradation value of less than 50% and no less than 25%)	B (a percentage degradation value of less than 50% and no less than 25%)	C (a percentage degradation value of less than 25% and no less than 10%)
Cc1c(-c2ccc(O)cc2)n(Cc2ccc(OCCCCNCc3ccc(OCc4scc5c4CN(C4CCC(=O)NC4=O)C5=O)cc3)cc2)c2ccc(O)cc12 (stereo not drawn) [Compound E5, 3-(1-((4-(((4-(4-((5-hydroxy-2-(4-hydroxyphenyl)-3-methyl-1H-indol-1-yl)-methyl)phenoxy)butyl)amino)methyl)phenoxy)methyl)-4-oxo-4H-thieno[3,4-c]pyrrol-5(6H)-yl)-piperidine-2,6-dione]	0.09	0.02	D (a percentage degradation value of less than 10%)	D (a percentage degradation value of less than 10%)	D (a percentage degradation value of less than 10%)
Cc1c(-c2ccc(O)cc2)n(Cc2ccc(OCCCCN3CCN(C(=O)COc4cccc5c(C6CCC(=O)NC6=O)nn(C)c45)CC3)cc2)c2ccc(O)cc12 (stereo not drawn) [Compound E7, 3-(7-(2-(4-(4-(4-((5-Hydroxy-2-(4-hydroxyphenyl)-3-methyl-1H-indol-1-yl)-methyl)phenoxy)butyl)piperazin-1-yl)-2-oxoethoxy)-1-methyl-1H-indazol-3-yl)piperidine-2,6-dione]	1.1	0.64	B (a percentage degradation value of less than 50% and no less than 25%)	A (a percentage degradation value of no less than 50%)	A (a percentage degradation value of no less than 50%)
Cc1c(-c2ccc(O)cc2)n(Cc2ccc(OCCCCN3CCN(C(=O)COc4ccc5c(N6CCC(=O)NC6=O)nn(C)c5c4)CC3)cc2)c2ccc(O)cc12 [Compound E16, 1-(6-(2-(4-(4-(4-((5-Hydroxy-2-(4-hydroxyphenyl)-3-methyl-1H-indol-1-yl)-methyl)phenoxy)butyl)piperazin-1-yl)-2-oxoethoxy)-1-methyl-1H-indazol-3-yl)dihydro-pyrimidine-2,4(1H,3H)-dione]	1.8	1.3	C (a percentage degradation value of less than 25% and no less than 10%)	C (a percentage degradation value of less than 25% and no less than 10%)	D (a percentage degradation value of less than 10%)
Cc1c(-c2ccc(O)cc2)n(Cc2ccc(OCCCCN3CCN(C(=O)COc4ccc(N5CCC(=O)NC5=O)cc4)CC3)cc2)c2ccc(O)cc12 [Compound E27, 1-(4-(2-(4-(4-(4-((5-hydroxy-2-(4-hydroxyphenyl)-3-methyl-1H-indol-1-yl)-methyl)phenoxy)butyl)piperazin-1-yl)-2-oxoethoxy)phenyl)dihydropyrimidine-2,4(1H,3H)-dione]	5.6	3.2	D (a percentage degradation value of less than 10%)	D (a percentage degradation value of less than 10%)	D (a percentage degradation value of less than 10%)
